Experiments:
[1] = system: rat sensory neurones (dorsal root ganglia); test: Neurite length of sensory neurones (anti β-Tubulin) in cisplatin-induced toxicity model; type: cell-based; conditions: for Mean neurite Length / neurite length, % Control without cisplatin: 10 ng/ml + cisplatin 3 μg/ml; for effect on cisplatin-induced loss of neurites (in words): 10 ng/ml, cisplatin 3 μg/ml
Experimental: (§1) The low molecular weight glycosaminoglycans are referred to in the examples as 2400 D.
(§2) 1. neurone cell bodies stained with an anti MAP 2 antibody (microtubule associated protein, and 2. neurite network density stained with an anti β-Tubulin antibody
Rat sensory neurones were prepared according to the method described by Hall et al 1997(3). Briefly, a female rat (15 days gestation) was killed by cervical dislocation (Rats Wistar; Janvier, Le Genest-St-Isle, France) and the foetuses removed from the uterus. Their spinal cords with the dorsal root ganglia (DRG) were removed and placed in ice-cold medium of Leibovitz (L15, Fisher 11415-049) containing Penicillin 50 Ul/ml—Streptomycin 50 μg/ml (PS, 1%) and bovine serum albumin (BSA 1%, Sigma A6003). The DRG were recovered and dissociated by trypsinisation for 20 min at 37° C. (trypsin EDTA 10×, 10%, Fisher 15400054) diluted in PBS without calcium and magnesium (Fisher 2007-03). […] The cell suspension was triturated with a 10 ml pipette and centrifuged at 350×g for 10 min at room temperature. The pellet of dissociated cells was then resuspended in defined culture medium.
Viable cells were counted in a Neubauer cytometer using the trypan blue exclusion test (Sigma) and seeded at a density of 30 000 cells/well in 96 well-plates (Nunc). Wells were pre-coated with poly-L-lysine (10 μg/ml, Sigma P2636) in ultra pure sterile water (Merck Eurolab 60759.01).
Cells were allowed to adhere for 2 h and maintained in a humidified incubator at 37° C. in 5% CO2/95% air atmosphere.
(§3) Six wells per condition were carried out to assess neuronal survival. After 48 hours and 72 hours of incubation, the neuronal cells were fixed for 5 minutes in an ethanol/acetic acid solution (95%/5%) at −20° C. and rinsed 3 times in PBS.
(§4) Cell bodies of sensory neurones were labelled by monoclonal anti MAP-2 antibody (Sigma M4403, see photograph 1A) and the neurite of sensory neurones were labelled by monoclonal β-Tubulin antibody (Sigma T8660). These antibodies were diluted at 1:400 in incubation solution (PBS with 5% of FCS and 0.1% of saponin, Sigma S-7900). These antibodies specifically label neurone cell bodies and neurites, respectively.
After 2 hours of incubation, the cells were washed in PBS and incubated with Alexa Fluor 488 goat anti mouse IgG (Molecular Probes A11001) diluted at 1:300 in incubation solution to reveal the MAP-2 and the β-Tubulin antibodies. Cell nuclei were stained with a fluorescent marker (Hoechst staining solution, SIGMA H6024, 1 μg/ml in incubation solution during 1 hour).
(§5) For each condition, 2 pictures per well (12 pictures per condition) were taken using In Cell Analyzer 1000 (Amersham Biosciences) controlled by the computer software In Cell Analyzer 1000 3.2. For the MAP-2 labelling, the magnification was ×10, for the β-Tubulin labelling, the magnification was ×20. For each labelling, all the images were taken in the same conditions.
(§6) Analysis of the number of cell bodies labelled with anti MAP-2 antibodies, and total length of neurites labelled with anti β-Tubulin antibodies, were carried out using In Cell Analyzer 1000 3.2.Workstation software. The results were expressed in percentage compared to the vehicle. The comparisons of each group were carried out using the unpaired T test.

[2] = system: rat sensory neurones (dorsal root ganglia); test: Number of neuronal cell bodies per field (anti MAP-2) in cisplatin-induced toxicity model; type: cell-based; conditions: for number of cell bodies per field, Average / number of cell bodies, % Control without cisplatin: 10 ng/ml + cisplatin 3 μg/ml; for effect on cisplatin-induced loss of cell bodies (in words): 10 ng/ml, cisplatin 3 μg/ml
Experimental: as §1, §2
Briefly, a female rat (15 days gestation) was killed by cervical dislocation (Rats Wistar; Janvier, Le Genest-St-Isle, France) and the foetuses removed from the uterus. […] The DRG were recovered and dissociated by trypsinisation for 20 min at 37° C. […] The cell suspension was triturated with a 10 ml pipette and centrifuged at 350×g for 10 min at room temperature. The pellet of dissociated cells was then resuspended in defined culture medium.
Viable cells were counted in a Neubauer cytometer using the trypan blue exclusion test (Sigma) and seeded at a density of 30 000 cells/well in 96 well-plates (Nunc).
as §3, §4
Cell nuclei were stained with a fluorescent marker (Hoechst staining solution, SIGMA H6024, 1 μg/ml in incubation solution during 1 hour).
as §5, §6

NGF: Nerve Growth Factor, a specific growth factor for sensory neurons; reference compound
Mean neurite Length ([1]; 48 hours): 6362.44 μm | neurite length, % Control without cisplatin ([1]; 48 hours): 117% | Mean neurite Length ([1]; 72 hours): 6000.30 μm | neurite length, % Control without cisplatin ([1]; 72 hours): 113% | effect on cisplatin-induced loss of neurites (in words) ([1]; 48 hours): prevented cisplatin-induced loss of neurites | effect on cisplatin-induced loss of neurites (in words) ([1]; 72 hours): prevented cisplatin-induced loss of neurites | number of cell bodies per field, Average ([2]; 48 hours): 58.33 | number of cell bodies, % Control without cisplatin ([2]; 48 hours): 96% | number of cell bodies per field, Average ([2]; 72 hours): 54.92 | number of cell bodies, % Control without cisplatin ([2]; 72 hours): 102% | effect on cisplatin-induced loss of cell bodies (in words) ([2]; 48 hours): almost completely prevented cisplatin-induced loss of cell bodies | effect on cisplatin-induced loss of cell bodies (in words) ([2]; 72 hours section (text prints 48 hours)): completely prevented cisplatin-induced loss of cell bodies

Source: US20100196510A1, “COMPOSITION AND TREATMENT” (priority 2007, published 2010)
